In patent US10421774B2 (priority 2016, dated 2019):

Legend:
Assay in all cases: microbe, parasite or virus in culture
Format in all cases: cell-based, HIV-1
[1] = system: NLRepRlucP373S recombinant wild type (WT) virus; conditions: Human immunodeficiency virus 1, MT2, read-out: WT EC50
Protocol: (§1) Cells. MT-2 cells and 293T cells were obtained from the NIH AIDS Research and Reference Reagent Program. Cell lines were sub-cultured twice a week in either RPMI 1640 (MT-2) or DMEM (293T, HeLa) media supplemented with 10% heat inactivated fetal bovine serum (FBS), 100 units/mL of penicillin G and 100 μg/mL of streptomycin. The DMEM medium was additionally supplemented with 10 mM HEPES buffer, pH 7.55, 2 mM L-glutamine and 0.25 μg/mL of amphotericin B.
(§2) Viruses. NLRepRluc virus contains the Renilla luciferase marker in place of the viral nef gene. The proviral plasmid pNLRepRluc was constructed at Bristol-Myers Squibb, starting from a proviral NL4-3 clone (B subtype) that was obtained from the NIH AIDS Research and Reference Reagent Program. The parental recombinant wild type (WT) virus (NLRepRlucP373S) was derived from NLRepRluc and contains the additional substitution of P373 for serine in Gag (within the SP1 spacer), the most common 373 variation in subtype B. Other recombinant viruses (A364V, V370A/ΔT371 and the “T3325 triple” (T332S/V362I+HIV-1 protease R41G)) were generated by site-directed mutagenesis of plasmid pNLRepRlucP373S to introduce those amino acid substitutions in Gag and protease. Recombinant virus DNA was then used to generate virus stocks by transfection of 293T cells (Lipofectamine PLUS kit, Invitrogen). Titers of virus stocks were determined using a luciferase assay (Dual-Luciferase® Reporter Assay System, Promega, Milwaukee, Wis., USA) endpoint.
(§3) Multiple cycle drug susceptibility assay. Pellets of MT-2 cells were infected with NLRepRlucP373S Gag site-directed viruses, where initial inocula of the reporter strains were normalized using equivalent endpoint luciferase activity signals. Such cell-virus mixtures were resuspended in medium, incubated for 1-hour at 37° C./CO2, and added to compound containing 96-well plates at a final cell density of 10,000 cells per well. The test compounds were 3-fold serially diluted in 100% DMSO, and assayed at a final DMSO concentration of 1%. After 4-5 day incubation at 37° C./CO2, virus yields were determined by Renilla luciferase activity (Dual-Luciferase® Reporter Assay System, Promega). The endpoint luminescence was detected on a Wallac Trilux (PerkinElmer).
(§4) The 50% inhibitory concentrations (EC50S) were calculated by using the exponential form of the median effect equation where Percent Inhibition=1/[1+(EC50/drug conc.^m], where m is a parameter that reflects the slope of the concentration-response curve. Background was taken as the residual signal observed upon inhibition at the highest concentration of a control protease inhibitor, NFV (3 μM).
as §4, with “The 90%” for “The 50%”, “concentrations (EC90S)” for “concentrations (EC50S)”, “where ECF=[(F/(100−F)]^1/H·EC50,” for “where Percent Inhibition=1/[1+(EC50/drug conc.^m],”, “where H” for “where m”

[2] = system: A364V site directed mutant virus; conditions: Human immunodeficiency virus 1, MT2, read-out: A364V EC50
Protocol: as §1, §2, §3
(§5) HIV-1 NL4-3 expressing Renilla luciferase gene was converted to the gag V370A/ΔT371 virus by site directed mutagenesis. A364V is a site directed mutant.
(§6) All three recombinant viruses were used as described above in the HIV cell culture assay for the NL4-3 virus.

gag V370A/ΔT371 virus = conditions: Human immunodeficiency virus 1, MT2, read-out: V370A/ΔT371 EC50
Protocol: as §1, §2, §3, §5, §6

[3] = system: T332S/V362I/Pr R41G virus; conditions: Human immunodeficiency virus 1, MT2, read-out: T332S/V362I/pr41G EC50
Protocol: as §1, §2, §3
T332sN362I/Pr R41G (N14.3, B Clade) virus′ was obtained as follows: Selection for resistance of HIV-1 strain […] virus with the HIV maturation inhibitor (MI) compound
At passage 8 virus was harvested and sequenced.
as §6

In the case of `C=C(C)[C@@H]1CC[C@]2(NCCN3CCS(=O)(=O)CC3)CC[C@]3(C)[C@H](CC[C@@H]4[C@@]5(C)CC=C(C6=CCC(COc7nnnn7C)(C(=O)O)CC6)C(C)(C)[C@@H]5CC[C@]43C)[C@@H]12` (some centres unmarked) [Example 13], the EC50 [1] is reported as 0.002 µM, the EC50 [2] is reported as 0.024 µM and the EC50 (gag V370A/ΔT371 virus) is reported as 0.007 µM. It also gave an EC50 [3] of 0.007 µM.

Compound `C=C(C)[C@@H]1CC[C@]2(NCCN3CCS(=O)(=O)CC3)CC[C@]3(C)[C@H](CC[C@@H]4[C@@]5(C)CC=C(C6=CCC(COc7nsc(=O)[nH]7)(C(=O)O)CC6)C(C)(C)[C@@H]5CC[C@]43C)[C@@H]12` (stereo partly drawn) [Example 14, 4-((1R,3aS,5aR,5bR,7aR,11aS,11bR,13aR,13bR)-3a-((2-(1,1-dioxidothiomorpholino)ethyl)amino)-5a,5b,8,8,11a-pentamethyl-1-(prop-1-en-2-yl)-2,3,3a,4,5,5a,5b,6,7,7a,8,11,11a,11 b,12,13,13a,13b-octadecahydro-1H-cyclopenta[a]chrysen-9-yl)-1-(((5-oxo-4,5-dihydro-1,2,4-thiadiazol-3-yl)oxy)methyl)cyclohex-3-ene-1-carboxylic acid] has an EC50 [1] of 0.027 µM, an EC50 [2] greater than 0.05 µM and an EC50 (gag V370A/ΔT371 virus) greater than 0.05 µM. It also gave an EC50 [3] greater than 0.05 µM.

For `C=C(C)[C@@H]1CC[C@]2(NCCN3CCS(=O)(=O)CC3)CC[C@]3(C)[C@H](CC[C@@H]4[C@@]5(C)CC=C(C6=CCC(COc7nccs7)(C(=O)O)CC6)C(C)(C)[C@@H]5CC[C@]43C)[C@@H]12` (stereo partly drawn) [Example 15, 4-((1R,3aS,5aR,5bR,7aR,11aS,11bR,13aR,13bR)-3a-((2-(1,1-dioxidothiomorpholino)ethyl)amino)-5a,5b,8,8,11a-pentamethyl-1-(prop-1-en-2-yl)-2,3,3a,4,5,5a,5b,6,7,7a,8,11,11a,11b,12,13,13a,13b-octadecahydro-1H-cyclopenta[a]chrysen-9-yl)-1-((thiazol-2-yloxy)methyl)cyclohex-3-ene-1-carboxylic acid], the EC50 [1] was 0.004 µM, the EC50 [2] was 2.38 µM and the EC50 (gag V370A/ΔT371 virus) was 0.39 µM. It also gave an EC50 [3] of 0.39 µM.

Compound `C=C(C)[C@@H]1CC[C@]2(NCCN3CCS(=O)(=O)CC3)CC[C@]3(C)[C@H](CC[C@@H]4[C@@]5(C)CC=C(C6=CCC(COc7cnnn7-c7ccccc7)(C(=O)O)CC6)C(C)(C)[C@@H]5CC[C@]43C)[C@@H]12` (some centres unmarked) [Example 16] has an EC50 [1] of 0.005 µM, an EC50 [2] of 0.032 µM and an EC50 (gag V370A/ΔT371 virus) of 0.03 µM. The EC50 [3] was 0.03 µM.

`C=C(C)[C@@H]1CC[C@]2(NCCN3CCS(=O)(=O)CC3)CC[C@]3(C)[C@H](CC[C@@H]4[C@@]5(C)CC=C(C6=CCC(COc7cnnn7C(C)C)(C(=O)O)CC6)C(C)(C)[C@@H]5CC[C@]43C)[C@@H]12` (stereo partly drawn) [Example 17, 4-((1R,3aS,5aR,5bR,7aR,11aS,11bR,13aR,13bR)-3a-((2-(1,1-dioxidothiomorpholino)ethyl)amino)-5a,5b,8,8,11a-pentamethyl-1-(prop-1-en-2-yl)-2,3,3a,4,5,5a,5b,6,7,7a,8,11,11a,11b,12,13,13a,13b-octadecahydro-1H-cyclopenta[a]chrysen-9-yl)-1-(((1-isopropyl-1H-1,2,3-triazol-5-yl)oxy)methyl)cyclohex-3-ene-1-carboxylic acid] gave an EC50 [1] of 0.003 µM, an EC50 [2] greater than 0.05 µM and an EC50 (gag V370A/ΔT371 virus) of 0.015 µM. The EC50 [3] was 0.015 µM.

For `C=C(C)c1cc(OCC2(C(=O)O)CC=C(C3=CC[C@]4(C)[C@H]5CC[C@@H]6[C@H]7[C@H](C(=C)C)CC[C@]7(NCCN7CCS(=O)(=O)CC7)CC[C@@]6(C)[C@]5(C)CC[C@H]4C3(C)C)CC2)ns1` (some centres unmarked) [Example 18], the EC50 [1] was 0.002 µM, the EC50 [2] was 0.011 µM and the EC50 (gag V370A/ΔT371 virus) was less than 0.05 µM. The EC50 [3] was 0.014 µM.

`C=C(C)[C@@H]1CC[C@]2(NCCN3CCS(=O)(=O)CC3)CC[C@]3(C)[C@H](CC[C@@H]4[C@@]5(C)CC=C(C6=CCC(COc7cccnn7)(C(=O)O)CC6)C(C)(C)[C@@H]5CC[C@]43C)[C@@H]12` (stereo partly drawn) [Example 19, 4-((1R,3aS,5aR,5bR,7aR,11aS,11bR,13aR,13bR)-3a-((2-(1,1-dioxidothiomorpholino)ethyl)amino)-5a,5b,8,8,11a-pentamethyl-1-(prop-1-en-2-yl)-2,3,3a,4,5,5a,5b,6,7,7a,8,11,11a,11 b,12,13,13a,13b-octadecahydro-1H-cyclopenta[a]chrysen-9-yl)-1-((pyridazin-3-yloxy)methyl)cyclohex-3-ene-1-carboxylic acid] showed an EC50 [1] of 0.003 µM, an EC50 [2] of 0.036 µM and an EC50 (gag V370A/ΔT371 virus) of 0.047 µM. The EC50 [3] was 0.047 µM.

With `C=C(C)[C@@H]1CC[C@]2(NCCN3CCS(=O)(=O)CC3)CC[C@]3(C)[C@H](CC[C@@H]4[C@@]5(C)CC=C(C6=CC[C@](COc7ccccn7)(C(=O)O)CC6)C(C)(C)[C@@H]5CC[C@]43C)[C@@H]12` [Example 20, (R)-4-((1R,3aS,5aR,5bR,7aR,11aS,11bR,13aR,13bR)-3a-((2-(1,1-dioxidothiomorpholino)ethyl)amino)-5a,5b,8,8,11a-pentamethyl-1-(prop-1-en-2-yl)-2,3,3a,4,5,5a,5b,6,7,7a,8,11,11a,11b,12,13,13a,13b-octadecahydro-1H-cyclopenta[a]chrysen-9-yl)-1-((pyridin-2-yloxy)methyl)cyclohex-3-ene-1-carboxylic acid] the EC50 [1] was less than 0.05 µM, the EC50 [2] was less than 0.05 µM and the EC50 (gag V370A/ΔT371 virus) was less than 0.05 µM. The EC50 [3] was less than 0.05 µM.

With `C=C(C)[C@@H]1CC[C@]2(NCCN3CCS(=O)(=O)CC3)CC[C@]3(C)[C@H](CC[C@@H]4[C@@]5(C)CC=C(C6=CC[C@](COc7ccncn7)(C(=O)O)CC6)C(C)(C)[C@@H]5CC[C@]43C)[C@@H]12` [Example 21] the EC50 [1] was less than 0.05 µM, the EC50 [2] was less than 0.05 µM and the EC50 (gag V370A/ΔT371 virus) was greater than 0.05 µM. For the same compound, the EC50 [3] was greater than 0.05 µM.

Compound `C=C(C)[C@@H]1CC[C@]2(NCCN3CCS(=O)(=O)CC3)CC[C@]3(C)[C@H](CC[C@@H]4[C@@]5(C)CC=C(C6=CC[C@](COc7ncccc7Cl)(C(=O)O)CC6)C(C)(C)[C@@H]5CC[C@]43C)[C@@H]12` [Example 22] has an EC50 [1] of 0.005 µM, an EC50 [2] of 0.008 µM and an EC50 (gag V370A/ΔT371 virus) of 0.015 µM. The EC50 [3] was 0.015 µM.

Compound `C=C(C)[C@@H]1CC[C@]2(NCCN3CCS(=O)(=O)CC3)CC[C@]3(C)[C@H](CC[C@@H]4[C@@]5(C)CC=C(C6=CC[C@](COc7ncccc7C#N)(C(=O)O)CC6)C(C)(C)[C@@H]5CC[C@]43C)[C@@H]12` [Example 23, (R)-1-(((3-cyanopyridin-2-yl)oxy)methyl)-4-((1R,3aS,5aR,5bR,7aR,11aS,11bR,13aR,13bR)-3a-((2-(1,1-dioxidothiomorpholino)ethyl)amino)-5a,5b,8,8,11a-pentamethyl-1-(prop-1-en-2-yl)-2,3,3a,4,5,5a,5b,6,7,7a,8,11,11a,11b,12,13,13a,13b-octadecahydro-1H-cyclopenta[a]chrysen-9-yl)cyclohex-3-ene-1-carboxylic acid] has an EC50 [1] of 0.002 µM, an EC50 [2] greater than 0.05 µM and an EC50 (gag V370A/ΔT371 virus) of less than 0.05 µM. The EC50 [3] was 0.006 µM.
